Experimental data from US6596500B1, “Binding of retinoids to M6P/IGF-II receptor” (The General Hospital Corporation, priority 1998, dated 2003).
“Also recorded” adds a separate entry of the source.

Experiments:
P388D1 cells [1] = assay: Morphology, growth and apoptosis of P388D1 cells overexpressing M6P/IGF2R; type: cell-based, mouse; details: for Cell morphology: 1 μM RA for 24 hours
Procedure: FIG. 10 is a graph showing the effect of RA treatment on growth rate of P388D1 cells overexpressing M6P/IGF2R protein and P388D1 controls. Open circles, vector control cells without RA treatment; closed circles, vector control cells with 1 μM RA treatment; open triangles, overexpressing cells without RA treatment; closed triangles overexpressing cells with 1 μM RA treatment.
We examined M6P/IGF2R-mediated effects of RA in mouse macrophage P388D1 cells, which are the best characterized cells that lack the M6P/IGF2R protein.

P388D1 cells [2] = assay: Cathepsin B distribution in P388D1 cells lacking or overexpressing M6P/IGF2R; type: cell-based, mouse
Source text: Intracellular Trafficking Materials Retinoic acid was obtained from Sigma Chem. Co. (St. Louis, Mo.). The synthetic retinoids used (AGN193109, TTNPB) were produced by Allergan Inc. (Irvine, Calif.). Stably-transfected P388D1 cells re-expressing the M6P/IGF2R were provided by Dr. William S. Sly (St. Louis University). The rabbit polyclonal antibody against the rat M6P/IGF-II receptor was a gift from Dr. R.G. MacDonald (University of Nebraska). The rabbit polyclonal anti-rat cathepsin B antibody was purchased from Upstate Biotechnology (N.Y.). The FITC-conjugated goat anti-rabbit IgG was obtained from Jackson ImmunoResearch Laboratories (West Grove, Pa.). Neonatal rat cardiac fibroblasts were prepared from 1-day-old rats using the Neonatal Cardiomyocyte Isolation System (Worthington) and grown on glass coverslips in F-10 nutrient mixture with 10% horse serum and 5% fetal bovine serum (FBS). Cells were used in experiments after 3-5 days of culture. Mouse macrophage P3,88D1 cells were cultured in minimum essential medium-a (MEM-α) supplemented with 10% FBS.
Cells were then fixed with 4% paraformaldehyde in phosphate-buffered saline (PBS) for 30 min. The cells were washed in PBS, permeabilized with 0.1% Triton X-100 in PBS for 5 min, and then incubated with either polyclonal anti-rat M6P/IGF2R antibody or anti-rat cathepsin B antibody (diluted 1:200) at room temperature for 1 h. […]

M6P/IGF-II receptor = target: T1, M6P/IGF-II receptor (Rattus norvegicus, UniProt G3V824); assay: Endocytosis of exogenous β-glucuronidase in cultured cardiac myocytes; type: cell-based
T1 construct: cultured neonatal rat cardiac myocytes, which were known to express high levels of the M6P/IGF-II receptor; endogenous in cells; host or cells: primary neonatal rat cardiac myocytes
T1 sequence (G3V824 36-2481): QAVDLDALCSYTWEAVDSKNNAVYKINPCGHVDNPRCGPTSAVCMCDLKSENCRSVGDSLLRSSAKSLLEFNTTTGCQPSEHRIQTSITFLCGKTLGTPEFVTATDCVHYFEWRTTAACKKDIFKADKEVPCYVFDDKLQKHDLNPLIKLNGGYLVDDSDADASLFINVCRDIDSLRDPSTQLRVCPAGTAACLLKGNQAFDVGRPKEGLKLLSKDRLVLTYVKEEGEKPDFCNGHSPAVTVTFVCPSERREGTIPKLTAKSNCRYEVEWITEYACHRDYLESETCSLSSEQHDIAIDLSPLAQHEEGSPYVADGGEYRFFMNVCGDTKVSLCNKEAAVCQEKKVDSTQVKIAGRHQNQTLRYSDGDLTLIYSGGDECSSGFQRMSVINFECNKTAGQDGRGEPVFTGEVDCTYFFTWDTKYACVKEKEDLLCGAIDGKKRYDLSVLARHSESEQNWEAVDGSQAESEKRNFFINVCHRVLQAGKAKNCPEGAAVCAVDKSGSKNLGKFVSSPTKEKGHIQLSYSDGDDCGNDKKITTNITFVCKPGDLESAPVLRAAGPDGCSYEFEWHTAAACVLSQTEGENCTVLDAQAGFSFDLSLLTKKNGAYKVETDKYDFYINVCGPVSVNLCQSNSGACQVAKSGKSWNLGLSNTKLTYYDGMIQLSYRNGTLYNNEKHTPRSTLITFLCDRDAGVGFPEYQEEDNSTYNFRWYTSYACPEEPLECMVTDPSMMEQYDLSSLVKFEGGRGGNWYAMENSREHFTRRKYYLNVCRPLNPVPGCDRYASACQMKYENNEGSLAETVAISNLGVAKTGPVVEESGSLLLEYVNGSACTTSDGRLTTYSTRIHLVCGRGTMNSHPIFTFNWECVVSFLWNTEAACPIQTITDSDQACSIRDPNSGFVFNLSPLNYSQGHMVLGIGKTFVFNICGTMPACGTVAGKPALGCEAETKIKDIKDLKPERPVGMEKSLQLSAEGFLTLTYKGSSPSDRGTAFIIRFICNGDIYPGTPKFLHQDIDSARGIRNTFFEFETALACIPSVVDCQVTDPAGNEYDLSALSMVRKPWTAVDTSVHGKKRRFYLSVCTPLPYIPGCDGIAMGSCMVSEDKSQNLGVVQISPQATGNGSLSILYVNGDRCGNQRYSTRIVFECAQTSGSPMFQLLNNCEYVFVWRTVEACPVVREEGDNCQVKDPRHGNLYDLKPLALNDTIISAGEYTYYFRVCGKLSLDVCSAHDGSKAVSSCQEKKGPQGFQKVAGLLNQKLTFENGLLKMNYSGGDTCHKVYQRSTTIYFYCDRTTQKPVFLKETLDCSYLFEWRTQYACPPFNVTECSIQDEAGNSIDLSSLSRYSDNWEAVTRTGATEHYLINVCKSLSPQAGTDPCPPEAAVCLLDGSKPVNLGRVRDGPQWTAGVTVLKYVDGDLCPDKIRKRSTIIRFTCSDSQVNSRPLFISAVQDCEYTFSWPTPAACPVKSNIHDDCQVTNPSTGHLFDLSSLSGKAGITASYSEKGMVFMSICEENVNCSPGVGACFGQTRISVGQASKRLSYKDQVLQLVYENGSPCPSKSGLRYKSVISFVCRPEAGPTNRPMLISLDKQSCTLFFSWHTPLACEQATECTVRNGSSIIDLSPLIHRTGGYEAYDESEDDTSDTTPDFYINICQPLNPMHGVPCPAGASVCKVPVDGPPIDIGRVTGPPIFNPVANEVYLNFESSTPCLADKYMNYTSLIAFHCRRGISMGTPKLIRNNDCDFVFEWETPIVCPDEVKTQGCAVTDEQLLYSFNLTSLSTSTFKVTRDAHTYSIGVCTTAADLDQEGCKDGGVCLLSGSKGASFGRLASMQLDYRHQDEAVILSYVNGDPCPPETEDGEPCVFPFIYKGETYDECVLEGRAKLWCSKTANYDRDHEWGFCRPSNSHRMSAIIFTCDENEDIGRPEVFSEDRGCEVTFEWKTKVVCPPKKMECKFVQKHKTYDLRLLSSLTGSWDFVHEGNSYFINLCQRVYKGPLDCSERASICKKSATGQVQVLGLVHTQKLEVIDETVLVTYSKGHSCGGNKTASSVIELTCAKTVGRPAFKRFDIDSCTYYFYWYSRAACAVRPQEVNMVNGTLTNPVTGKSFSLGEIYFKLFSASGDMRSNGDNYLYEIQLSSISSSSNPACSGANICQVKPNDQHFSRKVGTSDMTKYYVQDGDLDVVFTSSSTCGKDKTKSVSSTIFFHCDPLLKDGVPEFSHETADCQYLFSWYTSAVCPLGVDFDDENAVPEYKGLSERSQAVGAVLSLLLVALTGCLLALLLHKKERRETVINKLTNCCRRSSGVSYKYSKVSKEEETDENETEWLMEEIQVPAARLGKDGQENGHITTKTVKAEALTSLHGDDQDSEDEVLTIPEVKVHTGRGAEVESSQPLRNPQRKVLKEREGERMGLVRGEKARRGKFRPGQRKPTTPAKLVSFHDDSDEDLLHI
Procedure: FIG. 4 is a histogram summarizing data on the effect of RA on the endocytosis of exogenous β-glucuronidase. Myocytes were incubated for 2 h at 37°0 C. with 1 ml of MEM containing 10,000 units of human β-glucuronidase, and with or without 5 mM mannose 6-phosphate, in the presence or absence of 2 μM RA. Following the incubation, the internalized human β-glucuronidase was determined as described in the Methods.
The primary functions of the Man-6-P/IGF-II receptor are to mediate endocytosis of extracellular M6P-containing proteins (e.g. lysosomal enzymes) and IGF-II and to sort newly synthesized lysosomal enzymes. Therefore, an important question raised by the direct interaction of RA with M6P/IGF2R is whether RA influences these functions of the receptor. To answer this question, we examined the effect of RA on endocytosis of exogenous β-glucuronidase and ^125I-IGF-II and intracellular activity of acid phosphatase in cultured neonatal rat cardiac myocytes, which were known to express high levels of the M6P/IGF-II receptor (Nissley et al., 1993, Mol. Reprod. Dev. 35:408-413). […] This indicated an increased sorting of lysosomal enzymes) (FIGS. 4-6). […]
Endocytosis of extracellular β-glucuronidase was determined as described by Kyle et al., 1988, J. Biol. Chem. 263:16230-16235. […]

M6P/IGF2R = M6P/IGF2R (Rattus norvegicus, UniProt G3V824); assay: Immunofluorescence of M6P/IGF2R distribution in fibroblasts; type: cell-based; parameters: endogenous in cells; host or cells: primary neonatal rat cardiac fibroblasts; details: RA 0.25-1 μM for 2-3 h; neonatal rat fibroblasts
M6P/IGF2R, sequence (G3V824 36-2481): as above
Source text: FIGS. 7A and 7B are photo micrographs showing the effect of retinoic acid on the distribution of the M6P/IGF2R in neonatal rat fibroblasts. […] The receptor was concentrated primarily in the perinuclear structure (probably the TGN area). […] Bar represents 4 μm.
To determine if RA affects intracellular trafficking of the M6P/IGF2R, distribution of the receptor in neonatal rat fibroblasts with or without RA treatment was visualized by immunofluorescence. The primary antibody used to target the receptor was a polyclonal anti-rat M6P/IGF2R (full length) rabbit IgG with high specificity. A non-immuno-rabbit IgG was used as a negative control. As indicated by fluorescence (FIGS. 7A and 7B), the M6P/IGF2R in the fibroblasts is normally concentrated primarily in the perinuclear structure (probably the TGN). […] This indicated a potentiating effect of RA on the trafficking of the M6P/IGF2R from the TGN to the endosomes/lysosomes.
Intracellular Trafficking Materials Retinoic acid was obtained from Sigma Chem. Co. (St. Louis, Mo.). The synthetic retinoids used (AGN193109, TTNPB) were produced by Allergan Inc. (Irvine, Calif.). Stably-transfected P388D1 cells re-expressing the M6P/IGF2R were provided by Dr. William S. Sly (St. Louis University). The rabbit polyclonal antibody against the rat M6P/IGF-II receptor was a gift from Dr. R.G. MacDonald (University of Nebraska). […]

CC1=C(/C=C/C(C)=C/C=C/C(C)=C/C(=O)O)C(C)(C)CCC1 [RA, all-trans-retinoic acid]
Cell morphology (P388D1 cells [1]; P388D1 cells overexpressing M6P/IGF2R): remarkable changes in cell morphology | Cell morphology (P388D1 cells [1]; control P388D1 cells transformed with vector alone): no such changes | Cell growth (proliferation) (P388D1 cells [1]; 1 μM RA, P388D1 cells overexpressing M6P/IGF2R): grew much more slowly | Apoptotic cells (fluorescence staining of fragmented DNA) (P388D1 cells [1]; RA, overexpressing P388D1 cells vs controls): much higher number of apoptotic cells | RA-induced cathepsin B translocation (P388D1 cells [2]; M6P/IGF2R-deficient P388D1 cells): No significant effect | RA-induced cathepsin B translocation (P388D1 cells [2]; stably-transfected P388D1 cells overexpressing M6P/IGF2R): remarkable cathepsin B translocation | Effects of RA on endocytosis, IGF-II internalization and acid phosphatase with protein synthesis inhibitor (M6P/IGF-II receptor; RA 2 μM plus 0.5 mM cycloheximide): not altered | M6P-inhibitable endocytosis of β-glucuronidase (M6P/IGF-II receptor; RA 2 μM, 2 h at 37° C.): almost doubled | Intracellular distribution of M6P/IGF2R (M6P/IGF2R): translocated from perinuclear area to cytoplasmic vesicles; also recorded: movement of the receptors from the perinuclear area to the cytoplasmic vesicles
